Test results published in patent US20090137572A1, “2-substituted-4-heteroaryl-pyrimidines useful for the treatment of proliferative disorders” (priority 2004, published 2009).

Experiments:
[1] = molecular target: T1, Aurora A kinase (Homo sapiens, UniProt O14965); experiment: Aurora-A (human) kinase assay (Kemptide substrate); format: biochemical; conditions: pIC50 is -log(IC50, M); 15 μM ATP; read-out: Kinase Inhibition pIC50 Aurora A kinase (converted)
T1 construct: purchased
T1 sequence (O14965 1-403): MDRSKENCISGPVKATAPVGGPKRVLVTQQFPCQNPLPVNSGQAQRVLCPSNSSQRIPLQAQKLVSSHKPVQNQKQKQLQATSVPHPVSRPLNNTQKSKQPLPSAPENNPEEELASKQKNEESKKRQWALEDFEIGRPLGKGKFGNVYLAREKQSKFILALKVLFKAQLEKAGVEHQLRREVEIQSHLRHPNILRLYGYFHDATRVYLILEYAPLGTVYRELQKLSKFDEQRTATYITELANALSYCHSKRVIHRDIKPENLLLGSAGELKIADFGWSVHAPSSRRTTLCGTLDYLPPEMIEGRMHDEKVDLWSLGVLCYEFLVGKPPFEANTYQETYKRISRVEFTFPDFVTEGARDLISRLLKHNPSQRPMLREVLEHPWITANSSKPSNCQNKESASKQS
Procedure, shortened: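 Kemptide (LRRASLG, 200 μM) phosphorylation by 5-10 ng commercial aurora-A measured as [γ-33P] incorporation at 15 μM ATP with 10 mM Mg acetate, pH 7.0 MOPS buffer. Reaction ran 40 min at room temperature; acid-stopped, captured on P81 filters, scintillation read.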

[2] = molecular target: CDK2-cycline E (Homo sapiens, UniProt P24941); experiment: Kinase assay (radioactive phosphate incorporation), CDK2-cyclin E; format: biochemical; conditions: read-out: Kinase Inhibition pIC50 CDK2-cycline E (converted)
Procedure, shortened: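 Inhibition was measured as transfer of radiolabelled phosphate from [γ-32P]-ATP (100 μM ATP, 15 mM MgCl2) onto polypeptide substrates by recombinant kinases or kinase complexes. Reactions ran at 30° C in MOPS/β-glycerophosphate buffer, pH 7.4, were stopped on ice and filtered before scintillation counting.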

COc1cc(Nc2nccc(-c3sc(NCCc4ccccc4)nc3C)n2)cc(OC)c1 [Compound 159, (3,5-Dimethoxy-phenyl)-[4-(4-methyl-2-phenethylamino-thiazol-5-yl)-pyrimidin-2-yl]-amine]
IC50 [1]: 794 nM | melting point: 201 to 202 °C

Cc1nc(N(C)c2cc(Cl)cc(Cl)c2)sc1-c1ccnc(Nc2ccc(N3CCOCC3)c(Cl)c2)n1 [Compound 128, (3-Chloro-4-morpholin-4-yl-phenyl)-(4-{2-[(3,5-dichloro-phenyl)-methyl-amino]-4-methyl-thiazol-5-yl}-pyrimidin-2-yl)-amine]
IC50 [1]: 100 nM | melting point: 224 to 225 °C

Cc1nc(NCCc2ccccc2)sc1-c1ccnc(Nc2ccc(N3CCOCC3)cc2)n1 [Compound 158, [4-(4-Methyl-2-phenethylamino-thiazol-5-yl)-pyrimidin-2-yl]-(4-morpholin-4-yl-phenyl)-amine]
IC50 [1]: 200 nM | melting point: 226 to 228 °C | IC50 [2]: 1000 nM

Cc1nc(-c2cccnc2)sc1-c1ccnc(Nc2ccc(N3CCSCC3)cc2)n1 [Compound 204, [4-(4-Methyl-2-pyridin-3-yl-thiazol-5-yl)-pyrimidin-2-yl]-(4-thiomorpholin-4-yl-phenyl)-amine]
IC50 [1]: 501 nM | melting point: 191 to 193 °C

CCNc1nc(C)c(-c2ccnc(Nc3cc(OC)cc(OC)c3)n2)s1 [Compound 160, (3,5-Dimethoxy-phenyl)-[4-(2-ethylamino-4-methyl-thiazol-5-yl)-pyrimidin-2-yl]-amine]
IC50 [1]: 794 nM | melting point: 235 to 237 °C

CC(=O)N1CCN(c2ccc(Nc3nccc(-c4sc(-c5ccc(N6CCOCC6)cc5)nc4C)n3)cc2)CC1 [Compound 148, 1-[4-(4-{4-[4-Methyl-2-(4-morpholin-4-yl-phenyl)-thiazol-5-yl]-pyrimidin-2-ylamino}-phenyl)-piperazin-1-yl]-ethanone]
IC50 [1]: 316 nM | melting point: 250 to 252 °C

Cc1nc(C)c(-c2ccnc(Nc3ccc(N4CCSCC4)cc3)n2)s1 [Compound 202, [4-(2,4-Dimethyl-thiazol-5-yl)-pyrimidin-2-yl]-(4-thiomorpholin-4-yl-phenyl)-amine]
IC50 [1]: 158 nM | melting point: 173 to 174 °C | IC50 [2]: 5010 nM

CC(=O)NCc1cccc(Nc2nccc(-c3sc(-c4ncc(C(F)(F)F)cc4Cl)nc3C)n2)c1 [Compound 109, N-(3-{4-[2-(3-Chloro-5-trifluoromethyl-pyridin-2-yl)-4-methyl-thiazol-5-yl]-pyrimidin-2-ylamino}-benzyl)-acetamide]
IC50 [1]: 631 nM | melting point: 217 to 218 °C

CC(=O)N1CCN(c2ccc(Nc3nccc(-c4sc(Nc5ccccc5)nc4C)n3)cc2)CC1 [Compound 172, 1-(4-{4-[4-(4-Methyl-2-phenylamino-thiazol-5-yl)-pyrimidin-2-ylamino]-phenyl}-piperazin-1-yl)-ethanone]
IC50 [1]: 251 nM | melting point: 245 to 246 °C

Cc1nc(C)c(-c2ccnc(Nc3ccc(N4CCCCC4)c(C)c3)n2)s1 [Compound 205, [4-(2,4-Dimethyl-thiazol-5-yl)-pyrimidin-2-yl]-(3-methyl-4-piperidin-1-yl-phenyl)-amine]
IC50 [1]: 398 nM | melting point: 159 to 160 °C

COCCNS(=O)(=O)c1ccc(Nc2nccc(-c3sc(-c4cccnc4)nc3C)n2)cc1 [Compound 110, N-(2-Methoxy-ethyl)-4-[4-(4-methyl-2-pyridin-3-yl-thiazol-5-yl)-pyrimidin-2-ylamino]-benzenesulfonamide]
IC50 [1]: 1000 nM | melting point: 252 to 254 °C

CC(=O)NCc1cccc(Nc2nccc(-c3sc(N(C)c4cc(Cl)cc(Cl)c4)nc3C)n2)c1 [Compound 125, N-[3-(4-{2-[(3,5-Dichloro-phenyl)-methyl-amino]-4-methyl-thiazol-5-yl}-pyrimidin-2-ylamino)-benzyl]-acetamide]
IC50 [1]: 2510 nM | melting point: 213 to 214 °C

Cc1nc(C)c(-c2ccnc(Nc3ccc(N4CCCC4)cc3)n2)s1 [Compound 199, [4-(2,4-Dimethyl-thiazol-5-yl)-pyrimidin-2-yl]-(4-pyrrolidin-1-yl-phenyl)-amine]
IC50 [1]: 631 nM | melting point: 192 to 193 °C

Cc1cc(Nc2nccc(-c3sc(-c4cccnc4)nc3C)n2)ccc1N1CCCCC1 [Compound 208, (3-Methyl-4-piperidin-1-yl-phenyl)-[4-(4-methyl-2-pyridin-3-yl-thiazol-5-yl)-pyrimidin-2-yl]-amine]
IC50 [1]: 1000 nM | melting point: 200 to 201 °C

Cc1nc(Nc2ccccc2)sc1-c1ccnc(Nc2ccc(N3CCN(Cc4ccccc4)CC3)cc2)n1 [Compound 176, [4-(4-Benzyl-piperazin-1-yl)-phenyl]-[4-(4-methyl-2-phenylamino-thiazol-5-yl)-pyrimidin-2-yl]-amine]
IC50 [1]: 6310 nM | melting point: 227 to 229 °C

Cc1nc(-c2cccnc2)sc1-c1ccnc(Nc2ccc(N3CCCC3)cc2)n1 [Compound 198, [4-(4-Methyl-2-pyridin-3-yl-thiazol-5-yl)-pyrimidin-2-yl]-(4-pyrrolidin-1-yl-phenyl)-amine]
IC50 [1]: 2000 nM | melting point: 212 to 214 °C

CCc1cc(-c2nc(C)c(-c3ccnc(Nc4ccc(S(=O)(=O)NCCO)cc4)n3)s2)ccn1 [Compound 102, 4-{4-[2-(2-Ethyl-pyridin-4-yl)-4-methyl-thiazol-5-yl]-pyrimidin-2-ylamino}-N-(2-hydroxy-ethyl)-benzenesulfonamide]
IC50 [1]: 63.1 nM | melting point: 233 to 234 °C

CC(=O)NCc1cccc(Nc2nccc(-c3sc(-c4ccc(C)nc4)nc3C)n2)c1 [Compound 108, N-(3-{4-[4-Methyl-2-(6-methyl-pyridin-3-yl)-thiazol-5-yl]-pyrimidin-2-ylamino}-benzyl)-acetamide]
IC50 [1]: 2510 nM | melting point: 227 to 229 °C

Cc1nc(-c2cccnc2)sc1-c1ccnc(Nc2ccc3c(c2)OCO3)n1 [Compound 177, Benzo[1,3]dioxol-5-yl-[4-(4-methyl-2-pyridin-3-yl-thiazol-5-yl)-pyrimidin-2-yl]-amine]
IC50 [1]: 2000 nM | melting point: 187 to 188 °C

CCNc1nc(C)c(-c2ccnc(Nc3ccc(N4CCCCC4)c(C)c3)n2)s1 [Compound 207, [4-(2-Ethylamino-4-methyl-thiazol-5-yl)-pyrimidin-2-yl]-(3-methyl-4-piperidin-1-yl-phenyl)-amine]
IC50 [1]: 501 nM | melting point: 213 to 214 °C

Cc1nc(N(C)c2cc(Cl)cc(Cl)c2)sc1-c1ccnc(Nc2ccc(N3CCOCC3)cc2)n1 [Compound 123, (4-{2-[(3,5-Dichloro-phenyl)-methyl-amino]-4-methyl-thiazol-5-yl}-pyrimidin-2-yl)-(4-morpholin-4-yl-phenyl)-amine]
IC50 [1]: 50.1 nM | melting point: 216 to 218 °C

CCc1cc(-c2nc(C)c(-c3ccnc(Nc4ccc(CNC(C)=O)cc4)n3)s2)ccn1 [Compound 104, N-(4-{4-[2-(2-Ethyl-pyridin-4-yl)-4-methyl-thiazol-5-yl]-pyrimidin-2-ylamino}-benzyl)-acetamide]
IC50 [1]: 63.1 nM | melting point: 224 to 225 °C

Cc1nc(N(C)c2ccc(Cl)cc2)sc1-c1ccnc(Nc2ccc(N3CCOCC3)cc2)n1 [Compound 124, (4-{2-[(4-Chloro-phenyl)-methyl-amino]-4-methyl-thiazol-5-yl}-pyrimidin-2-yl)-(4-morpholin-4-yl-phenyl)-amine]
IC50 [1]: 200 nM | melting point: 245 to 246 °C

Cc1nc(NCCc2ccccc2)sc1-c1ccnc(Nc2ccc(N3CCN(Cc4ccccc4)CC3)cc2)n1 [Compound 166, [4-(4-Benzyl-piperazin-1-yl)-phenyl]-[4-(4-methyl-2-phenethylamino-thiazol-5-yl)-pyrimidin-2-yl]-amine]
melting point: 191 to 192 °C

CC(=O)NCc1cccc(Nc2nccc(-c3sc(NCc4ccccc4)nc3C)n2)c1 [Compound 118, N-{3-[4-(2-Benzylamino-4-methyl-thiazol-5-yl)-pyrimidin-2-ylamino]-benzyl}-acetamide]
IC50 [1]: 501 nM | melting point: 181 to 183 °C

Cc1nc(-c2cccnc2)sc1-c1ccnc(Nc2cc(Cl)c(N3CCOCC3)c(Cl)c2)n1 [Compound 126, (3,5-Dichloro-4-morpholin-4-yl-phenyl)-[4-(4-methyl-2-pyridin-3-yl-thiazol-5-yl)-pyrimidin-2-yl]-amine]
IC50 [1]: 251 nM | melting point: 276 to 278 °C

Cc1nc(-c2nc(C)c(-c3ccnc(Nc4ccc(N5CCOCC5)cc4)n3)s2)cs1 [Compound 135, [4-(4,2′-Dimethyl-[2,4′]bithiazolyl-5-yl)-pyrimidin-2-yl]-(4-morpholin-4-yl-phenyl)-amine]
IC50 [1]: 1260 nM | melting point: 262 to 263 °C

Cc1nc(C)c(-c2ccnc(Nc3cccc(CN)c3)n2)s1 [Compound 90, (3-Aminomethyl-phenyl)-[4-(2,4-dimethyl-thiazol-5-yl)-pyrimidin-2-yl]-amine]
melting point: 183 to 184 °C | IC50 [2]: 398 nM
